Experimental data as given in ChEMBL document CHEMBL4308841, “Synthesis, in vitro antiproliferative activity, and kinase inhibitory effects of pyrazole-containing diarylureas and diarylamides” (Eur J Med Chem, 2018).

Assays:
[1] = tested on: HT-29; test: Growth inhibition of human HT-29 cells assessed as cell growth at 10 uM incubated for 48 hrs by sulforhodamine B assay relative to control; assay type: functional; conditions: HT-29, 48 h, read-out: Activity
[2] = tested on: SW-620; test: Growth inhibition of human SW620 cells assessed as cell growth at 100 uM incubated for 48 hrs by sulforhodamine B assay relative to control; assay type: functional; conditions: SW-620, 48 h, read-out: Activity
[3] = tested on: ACHN; test: Growth inhibition of human ACHN cells assessed as cell growth at 100 uM incubated for 48 hrs by sulforhodamine B assay relative to control; assay type: functional; conditions: read-out: Activity
[4] = tested on: 786-0; test: Growth inhibition of human 786-0 cells assessed as cell growth at 1 uM incubated for 48 hrs by sulforhodamine B assay relative to control; assay type: functional; conditions: 786-0, 48 h, read-out: Activity
[5] = tested on: 786-0; test: Growth inhibition of human 786-0 cells assessed as cell growth at 100 uM incubated for 48 hrs by sulforhodamine B assay relative to control; assay type: functional; conditions: 786-0, 48 h, read-out: Activity
[6] = tested on: PC-3; test: Growth inhibition of human PC3 cells assessed as cell growth at 100 uM incubated for 48 hrs by sulforhodamine B assay relative to control; assay type: functional; conditions: PC-3, 48 h, read-out: Activity
[7] = tested on: COLO 205; test: Growth inhibition of human COLO205 cells assessed as cell growth at 100 uM incubated for 48 hrs by sulforhodamine B assay relative to control; assay type: functional; conditions: COLO 205, 48 h, read-out: Activity
[8] = tested on: SF-268; test: Growth inhibition of human SF268 cells incubated for 48 hrs by sulforhodamine B assay; assay type: functional, cell-based; conditions: SF-268, 48 h
[9] = tested on: SF-295; test: Growth inhibition of human SF295 cells assessed as cell growth at 0.1 uM incubated for 48 hrs by sulforhodamine B assay relative to control; assay type: functional; conditions: SF-295, 48 h, read-out: Activity
[10] = tested on: RPMI-8226; test: Growth inhibition of human RPMI8226 cells incubated for 48 hrs by sulforhodamine B assay; assay type: functional, cell-based; conditions: RPMI-8226, 48 h
[11] = tested on: UACC-257; test: Growth inhibition of human UACC257 cells assessed as cell growth at 100 uM incubated for 48 hrs by sulforhodamine B assay relative to control; assay type: functional; conditions: UACC-257, 48 h, read-out: Activity
[12] = tested on: 786-0; test: Growth inhibition of human 786-0 cells assessed as cell growth at 0.01 uM incubated for 48 hrs by sulforhodamine B assay relative to control; assay type: functional; conditions: 786-0, 48 h, read-out: Activity
[13] = tested on: NCI-H23; test: Growth inhibition of human NCI-H23 cells assessed as cell growth at 0.1 uM incubated for 48 hrs by sulforhodamine B assay relative to control; assay type: functional; conditions: NCI-H23, 48 h, read-out: Activity
[14] = tested on: SN12C; test: Growth inhibition of human SN12C cells incubated for 48 hrs by sulforhodamine B assay; assay type: functional, cell-based
[15] = tested on: HCC 2998; test: Growth inhibition of human HCC2998 cells incubated for 48 hrs by sulforhodamine B assay; assay type: functional, cell-based; conditions: HCC 2998, 48 h
[16] = tested on: HT-29; test: Growth inhibition of human HT-29 cells assessed as cell growth at 100 uM incubated for 48 hrs by sulforhodamine B assay relative to control; assay type: functional; conditions: HT-29, 48 h, read-out: Activity
[17] = tested on: NCI/ADR-RES; test: Growth inhibition of human NCI/ADR-RES cells assessed as cell growth at 100 uM incubated for 48 hrs by sulforhodamine B assay relative to control; assay type: functional; conditions: read-out: Activity
[18] = tested on: A498; test: Growth inhibition of human A498 cells assessed as cell growth at 0.1 uM incubated for 48 hrs by sulforhodamine B assay relative to control; assay type: functional; conditions: A498, 48 h, read-out: Activity
[19] = tested on: Malme-3M; test: Growth inhibition of human MALME-3M cells assessed as cell growth at 1 uM incubated for 48 hrs by sulforhodamine B assay relative to control; assay type: functional; conditions: read-out: Activity
[20] = tested on: SK-MEL-5; test: Growth inhibition of human SK-MEL-5 cells assessed as cell growth at 1 uM incubated for 48 hrs by sulforhodamine B assay relative to control; assay type: functional; conditions: SK-MEL-5, 48 h, read-out: Activity
[21] = tested on: HCC 2998; test: Growth inhibition of human HCC2998 cells assessed as cell growth at 0.1 uM incubated for 48 hrs by sulforhodamine B assay relative to control; assay type: functional; conditions: HCC 2998, 48 h, read-out: Activity
[22] = tested on: SNB-75; test: Growth inhibition of human SNB75 cells assessed as cell growth at 0.01 uM incubated for 48 hrs by sulforhodamine B assay relative to control; assay type: functional; conditions: SNB-75, 48 h, read-out: Activity
[23] = tested on: NCI-H522; test: Growth inhibition of human NCI-H522 cells incubated for 48 hrs by sulforhodamine B assay; assay type: functional, cell-based; conditions: NCI-H522, 48 h
[24] = tested on: HCT-15; test: Growth inhibition of human HCT15 cells incubated for 48 hrs by sulforhodamine B assay; assay type: functional, cell-based; conditions: HCT-15, 48 h
[25] = tested on: SK-OV-3; test: Growth inhibition of human SKOV3 cells assessed as cell growth at 0.1 uM incubated for 48 hrs by sulforhodamine B assay relative to control; assay type: functional; conditions: SK-OV-3, 48 h, read-out: Activity
[26] = tested on: U-251; test: Growth inhibition of human U251 cells incubated for 48 hrs by sulforhodamine B assay; assay type: functional, cell-based; conditions: U-251, 48 h
[27] = tested on: UACC-62; test: Growth inhibition of human UACC62 cells incubated for 48 hrs by sulforhodamine B assay; assay type: functional, cell-based; conditions: UACC-62, 48 h
[28] = read-out: LC50 (the source's name)
[29] = read-out: pLC50 (the source's name) (converted)

COc1cc(Cl)cc(-c2nn(-c3cccc(NC(=O)c4ccc(Cl)c(Cl)c4)c3)cc2-c2ccncc2)c1
growth at 10 µM [1]: 56.4%

COc1cc(Cl)cc(-c2nn(-c3cccc(NC(=O)Nc4cc(C(F)(F)F)cc(C(F)(F)F)c4)c3)cc2-c2ccncc2)c1
growth at 100 µM [2]: -72% | growth at 100 µM [3]: -38% | growth at 1 µM [4]: 38% | growth at 100 µM [5]: -70% | growth at 100 µM [6]: -44% | growth at 100 µM [7]: -68% | IC50 [8]: 620 nM | GI50 ([8]; read-out: GI50): 618 nM | CC50 [8, 28]: 30.7 nM | TGI ([8]; read-out: TGI): 3250 nM | GI50 ([8]; read-out: pGI50 (converted)): 617 nM | CC50 [8, 29]: 30900 nM | TGI ([8]; read-out: pTGI (converted)): 3240 nM | growth at 0.1 µM [9]: 91% | IC50 [10]: 240 nM | GI50 ([10]; read-out: GI50): 238 nM | CC50 [10, 28]: > 100000 nM | TGI ([10]; read-out: TGI): 760 nM | GI50 ([10]; read-out: pGI50 (converted)): 234 nM | CC50 [10, 29]: > 100000 nM | TGI ([10]; read-out: pTGI (converted)): 759 nM | growth at 10 µM [1]: 3.93% | growth at 100 µM [11]: -88% | growth at 0.01 µM [12]: 96% | growth at 0.1 µM [13]: 95% | IC50 [14]: 390 nM | GI50 ([14]; read-out: GI50): 356 nM | LC50 ([14]; read-out: LC50): 29.5 nM | TGI ([14]; read-out: TGI): 1980 nM | GI50 ([14]; read-out: pGI50 (converted)): 389 nM | LC50 ([14]; read-out: pLC50 (converted)): 29500 nM | TGI ([14]; read-out: pTGI (converted)): 2000 nM | IC50 [15]: 620 nM | GI50 ([15]; read-out: GI50): 622 nM | TGI ([15]; read-out: TGI): 4950 nM | GI50 ([15]; read-out: pGI50 (converted)): 617 nM | CC50 [15, 29]: 42700 nM | TGI ([15]; read-out: pTGI (converted)): 5010 nM | growth at 100 µM [16]: -96% | growth at 100 µM [17]: -12% | growth at 0.1 µM [18]: 69% | growth at 1 µM [19]: 36% | growth at 1 µM [20]: 50% | growth at 0.1 µM [21]: 105% | growth at 0.01 µM [22]: 71% | IC50 [23]: 350 nM | GI50 ([23]; read-out: GI50): 353 nM | TGI ([23]; read-out: TGI): 1760 nM | GI50 ([23]; read-out: pGI50 (converted)): 355 nM | CC50 [23, 29]: 8910 nM | TGI ([23]; read-out: pTGI (converted)): 1780 nM | IC50 [24]: 350 nM | GI50 ([24]; read-out: GI50): 352 nM | TGI ([24]; read-out: TGI): 2250 nM | GI50 ([24]; read-out: pGI50 (converted)): 355 nM | CC50 [24, 29]: 74100 nM | TGI ([24]; read-out: pTGI (converted)): 2820 nM | growth at 0.1 µM [25]: 105% | IC50 [26]: 320 nM | GI50 ([26]; read-out: GI50): 324 nM | CC50 [26, 28]: 43 nM | TGI ([26]; read-out: TGI): 1310 nM | GI50 ([26]; read-out: pGI50 (converted)): 324 nM | CC50 [26, 29]: 4370 nM | TGI ([26]; read-out: pTGI (converted)): 1320 nM | IC50 [27]: 360 nM | GI50 ([27]; read-out: GI50): 357 nM | CC50 [27, 28]: 53.2 nM | TGI ([27]; read-out: TGI): 1500 nM | GI50 ([27]; read-out: pGI50 (converted)): 355 nM | CC50 [27, 29]: 5370 nM | TGI ([27]; read-out: pTGI (converted)): 1510 nM
